This passage reports MIC and IC50 results from ChEMBL document CHEMBL2203107, “Microwave-assisted synthesis and in vitro antibacterial activity of novel steroidal thiosemicarbazone derivatives” (Bioorg Med Chem Lett, 2012).

For orientation: MIC means the lowest concentration found to suppress growth. The low end stands for greater potency, the high end for weaker potency. One may read the IC50 as the point on the concentration scale where inhibition reaches its midpoint.

Assay [1] relates to Bacillus subtilis. Briefly: Antibacterial activity against Bacillus subtilis after 18 hrs by macrodilution method. It counts as functional.
The test system of assay [2] is Pseudomonas aeruginosa. The assay can be described thus: Antibacterial activity against Pseudomonas aeruginosa after 18 hrs by macrodilution method. In kind it is functional.
Assay [3] has as its system Staphylococcus aureus. The assay can be described thus: Antibacterial activity against Staphylococcus aureus after 18 hrs by macrodilution method. It counts as functional.
The test system of assay [4] is Staphylococcus aureus. The assay can be described thus: Antibacterial activity against Staphylococcus aureus. In kind it is functional, organism-based.

≈ marks a conversion by molar mass, not a printed value.

For `COC(=O)CC[C@@H](C)[C@H]1CC[C@H]2[C@@H]3CC[C@@H]4C/C(=N/NC(=S)Nc5ccc(Br)cc5)CC[C@]4(C)[C@H]3CC(=O)[C@]12C`, the MIC in assay [1] was more than 128 µg/mL; in assay [2], 2 µg/mL (≈ 3.17 µM); in assay [3], more than 128 µg/mL.

With `COC(=O)CC[C@@H](C)[C@H]1CC[C@H]2[C@@H]3CC[C@@H]4C/C(=N/NC(=S)Nc5ccc(OC)cc5)CC[C@]4(C)[C@H]3CC(=O)[C@]12C`, the MIC in assay [1] was more than 128 µg/mL; in assay [2], 2 µg/mL (≈ 3.44 µM); in assay [3] it was more than 128 µg/mL.

Turning to `COC(=O)CC[C@@H](C)[C@H]1CC[C@H]2[C@@H]3C(=O)C[C@@H]4C/C(=N/NC(=S)Nc5ccc(OC)cc5)CC[C@]4(C)[C@H]3CC[C@]12C`, the MIC stood at 32 µg/mL (≈ 55 µM) in assay [1], 128 µg/mL (≈ 220 µM) in assay [2] and 128 µg/mL (≈ 220 µM) in assay [3].

For `COC(=O)CC[C@@H](C)[C@H]1CC[C@H]2[C@@H]3C(=O)C[C@@H]4C/C(=N/NC(=S)Nc5ccc(F)cc5)CC[C@]4(C)[C@H]3CC[C@]12C`, the MIC in assay [1], in assay [2] and in assay [3] was 128 µg/mL (≈ 225 µM) each time.

With `COC(=O)CC[C@@H](C)[C@H]1CC[C@H]2[C@@H]3C(=O)C[C@@H]4C/C(=N/NC(=S)Nc5ccc(C)cc5)CC[C@]4(C)[C@H]3CC[C@]12C`, the minimal inhibitory concentration (MIC) is 32 µg/mL (≈ 56.6 µM) in assay [1], 16 µg/mL (≈ 28.3 µM) in assay [2] and more than 128 µg/mL in assay [3].

On to `COC(=O)CC[C@@H](C)[C@H]1CC[C@H]2[C@@H]3C(=O)C[C@@H]4C/C(=N/NC(=S)Nc5cccc6ccccc56)CC[C@]4(C)[C@H]3CC[C@]12C`, for which the MIC in assay [1] is 32 µg/mL (≈ 53.2 µM); in assay [2], 16 µg/mL (≈ 26.6 µM); in assay [3], more than 128 µg/mL.

Regarding `COC(=O)CC[C@@H](C)[C@H]1CC[C@H]2[C@@H]3CC[C@@H]4C/C(=N/NC(=S)Nc5ccccc5)CC[C@]4(C)[C@H]3CC(=O)[C@]12C`, the MIC in assay [1] is 64 µg/mL (≈ 116 µM); in assay [2], 32 µg/mL (≈ 58 µM); in assay [3], more than 128 µg/mL.

In the case of `COC(=O)CC[C@@H](C)[C@H]1CC[C@H]2[C@@H]3CC[C@@H]4C/C(=N/NC(=S)Nc5ccc(F)cc5)CC[C@]4(C)[C@H]3CC(=O)[C@]12C`, the values for the MIC in assay [1], in assay [2] and in assay [3] were more than 128 µg/mL, 4 µg/mL (≈ 7.02 µM) and more than 128 µg/mL, respectively.

Turning to `COC(=O)CC[C@@H](C)[C@H]1CC[C@H]2[C@@H]3C/C(=N/NC(=S)Nc4ccc(OC)cc4)[C@@H]4C/C(=N/NC(=S)Nc5ccc(OC)cc5)CC[C@]4(C)[C@H]3CC[C@]12C`, the MIC in assay [1] was 128 µg/mL (≈ 168 µM); in assay [2] it was 4 µg/mL (≈ 5.26 µM); in assay [3], 32 µg/mL (≈ 42 µM).

`COC(=O)CC[C@@H](C)[C@H]1CC[C@H]2[C@@H]3C/C(=N/NC(=S)Nc4ccc(C)cc4)[C@@H]4C/C(=N/NC(=S)Nc5ccc(C)cc5)CC[C@]4(C)[C@H]3CC[C@]12C`: the results for the MIC in assay [1], in assay [2] and in assay [3] were 128 µg/mL (≈ 176 µM), 4 µg/mL (≈ 5.49 µM) and 128 µg/mL (≈ 176 µM), respectively.

On to `COC(=O)CC[C@@H](C)[C@H]1CC[C@H]2[C@@H]3C/C(=N/NC(=S)Nc4ccc(Br)cc4)[C@@H]4C/C(=N/NC(=S)Nc5ccc(Br)cc5)CC[C@]4(C)[C@H]3CC[C@]12C`, for which the values for the minimum inhibitory concentration (MIC) in assay [1], in assay [2] and in assay [3] were 128 µg/mL (≈ 149 µM), 2 µg/mL (≈ 2.33 µM) and 64 µg/mL (≈ 74.5 µM), respectively.

Turning to `COC(=O)CC[C@@H](C)[C@H]1CC[C@H]2[C@@H]3C/C(=N/NC(=S)Nc4cccc(F)c4)[C@@H]4C/C(=N/NC(=S)Nc5cccc(F)c5)CC[C@]4(C)[C@H]3CC[C@]12C`, the MIC in assay [1] was found to be 128 µg/mL (≈ 174 µM); in assay [2], 128 µg/mL (≈ 174 µM); in assay [3] it was 32 µg/mL (≈ 43.4 µM).

On to `COC(=O)CC[C@@H](C)[C@H]1CC[C@H]2[C@@H]3/C(=N/NC(=S)Nc4ccccc4)C[C@@H]4C/C(=N/NC(=S)Nc5ccccc5)CC[C@]4(C)[C@H]3CC[C@]12C`, for which the figures for the MIC in assay [1], in assay [2] and in assay [3] were 128 µg/mL (≈ 183 µM), 8 µg/mL (≈ 11.4 µM) and more than 128 µg/mL, respectively.

As for `COC(=O)CC[C@@H](C)[C@H]1CC[C@H]2[C@@H]3/C(=N/NC(=S)Nc4ccc(OC)cc4)C[C@@H]4C/C(=N/NC(=S)Nc5ccc(OC)cc5)CC[C@]4(C)[C@H]3CC[C@]12C`, the values for the MIC in assay [1], in assay [2] and in assay [3] were more than 128 µg/mL, 4 µg/mL (≈ 5.26 µM) and 64 µg/mL (≈ 84.1 µM), respectively. Half-maximal inhibition in assay [4] (IC50) was put at 3.25 µg/mL (≈ 4.27 µM).

Take `COC(=O)CC[C@@H](C)[C@H]1CC[C@H]2[C@@H]3/C(=N/NC(=S)Nc4ccc(Br)cc4)C[C@@H]4C/C(=N/NC(=S)Nc5ccc(Br)cc5)CC[C@]4(C)[C@H]3CC[C@]12C`: the figures for the MIC in assay [1], in assay [2] and in assay [3] were more than 128 µg/mL, 16 µg/mL (≈ 18.6 µM) and 32 µg/mL (≈ 37.3 µM), respectively. This molecule yielded an IC50 in assay [4] of 2.85 µg/mL (≈ 3.32 µM).

Turning to `COC(=O)CC[C@@H](C)[C@H]1CC[C@H]2[C@@H]3/C(=N/NC(=S)Nc4cccc(F)c4)C[C@@H]4C/C(=N/NC(=S)Nc5cccc(F)c5)CC[C@]4(C)[C@H]3CC[C@]12C`, the values for the MIC in assay [1], in assay [2] and in assay [3] were 8 µg/mL (≈ 10.9 µM), 32 µg/mL (≈ 43.4 µM) and 8 µg/mL (≈ 10.9 µM), respectively. Moreover, in assay [4], half-maximal inhibition (IC50) was put at 1.02 µg/mL (≈ 1.38 µM).

Take `CC1(C)S[C@@H]2[C@H](NC(=O)[C@H](N)c3ccc(O)cc3)C(=O)N2[C@H]1C(=O)O` [AMOXICILLIN]: the results for the MIC in assay [1], in assay [2] and in assay [3] were 16 µg/mL (≈ 43.8 µM), 2 µg/mL (≈ 5.47 µM) and 32 µg/mL (≈ 87.6 µM), respectively. Also, the IC50 in assay [4] is 2.84 µg/mL (≈ 7.77 µM).
